Measured values as given in ChEMBL document CHEMBL1201862, “PubChem BioAssay data set” (2004).
“And” between values parts separate entries of the source, which are not always exact repeats. Equal entries are not always repeated.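 Step 1: Grow cells in 96-well plates. Step 2: Expose to compound for 48 hours at 5 concentrations. Step 3: Interpolate endpoints linearly; if unreached, use highest concentration. Here, GI50 denotes the concentration required for 50% inhibition of growth.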 The source made the active and inactive calls. Rule as the data show it: active = GI50 up to about 1.1 µM and inactive = higher.

How the values were obtained:
Assay in all cases: NCI tumour cell line growth inhibition, 48 h
786-0 = test system: 786-0
A498 = test system: A498
A549 = test system: A549
ACHN = test system: ACHN
CAKI-1 = test system: CAKI-1
CCRF-CEM = test system: CCRF-CEM
DLD-1 = test system: DLD-1
DMS-273 = test system: DMS-273
EKVX = test system: EKVX
HCC 2998 = test system: HCC 2998
HCT-116 = test system: HCT-116
HL-60 = test system: HL-60
HOP-18 = test system: HOP-18
HOP-62 = test system: HOP-62
HT-29 = test system: HT-29
IGROV-1 = test system: IGROV-1
K562 = test system: K562
KM-20L2 = test system: KM-20L2
KM12 = test system: KM12
LOX IMVI = test system: LOX IMVI
LXFL 529 = test system: LXFL 529
M14 = test system: M14
M19-MEL = test system: M19-MEL
MOLT-4 = test system: MOLT-4
Malme-3M = test system: Malme-3M
NCI-H226 = test system: NCI-H226
NCI-H23 = test system: NCI-H23
NCI-H460 = test system: NCI-H460
NCI-H522 = test system: NCI-H522
OVCAR-3 = test system: OVCAR-3
OVCAR-4 = test system: OVCAR-4
OVCAR-5 = test system: OVCAR-5
OVCAR-8 = test system: OVCAR-8
RXF 393 = test system: RXF 393
SF-268 = test system: SF-268
SF-295 = test system: SF-295
SK-MEL-28 = test system: SK-MEL-28
SK-MEL-2 = test system: SK-MEL-2
SK-MEL-5 = test system: SK-MEL-5
SK-OV-3 = test system: SK-OV-3
SN12C = test system: SN12C
SNB-19 = test system: SNB-19
SNB-75 = test system: SNB-75
SNB-78 = test system: SNB-78
SR = test system: SR
SW-620 = test system: SW-620
TK-10 = test system: TK-10
U-251 = test system: U-251
UACC-257 = test system: UACC-257
UACC-62 = test system: UACC-62
UO-31 = test system: UO-31
XF498 = test system: XF498
BT-549 = test system: BT-549
DU-145 = test system: DU-145
HCT-15 = test system: HCT-15
Hs-578T = test system: Hs-578T
MCF7 = test system: MCF7
MDA-MB-231 = test system: MDA-MB-231
MDA-MB-435 = test system: MDA-MB-435
MDA-N = test system: MDA-N
NCI/ADR-RES = test system: NCI/ADR-RES
PC-3 = test system: PC-3
SF-539 = test system: SF-539
T47D = test system: T47D
DMS-114 = test system: DMS-114
HOP-92 = test system: HOP-92

COc1cc(/C=C/C(=O)c2cccc3ccccc23)cc(OC)c1OC
GI50 (786-0): 4.49 µM (inactive) | GI50 (A498): 2.82 µM (inactive) | GI50 (A549): 8.18 µM (inactive) | GI50 (ACHN): 12 µM (inactive) | GI50 (CAKI-1): 7.5 µM (inactive) | GI50 (CCRF-CEM): 2.56 µM (inactive) | GI50 (DLD-1): 3.85 µM (inactive) | GI50 (DMS-273): 3.59 µM (inactive) | GI50 (EKVX): 15 µM (inactive) | GI50 (HCC 2998): 15 µM (inactive) | GI50 (HCT-116): 3.82 µM (inactive) | GI50 (HL-60): 1.72 µM (inactive) | GI50 (HOP-18): 12.4 µM (inactive) | GI50 (HOP-62): 6.82 µM (inactive) | GI50 (HT-29): 4.27 µM (inactive) | GI50 (IGROV-1): 15.4 µM (inactive) | GI50 (K562): 3.02 µM (inactive) | GI50 (KM-20L2): 3.94 µM (inactive) | GI50 (KM12): 4.06 µM (inactive) | GI50 (LOX IMVI): 3.03 µM (inactive) | GI50 (LXFL 529): 2.73 µM (inactive) | GI50 (M14): 5.93 µM (inactive) | GI50 (M19-MEL): 7.33 µM (inactive) | GI50 (MOLT-4): 3.44 µM (inactive) | GI50 (Malme-3M): 11.4 µM (inactive) | GI50 (NCI-H226): 15.3 µM (inactive) | GI50 (NCI-H23): 5.32 µM (inactive) | GI50 (NCI-H460): 3.78 µM (inactive) | GI50 (NCI-H522): 4.68 µM (inactive) | GI50 (OVCAR-3): 12.8 µM (inactive) | GI50 (OVCAR-4): 6.41 µM (inactive) | GI50 (OVCAR-5): 14.2 µM (inactive) | GI50 (OVCAR-8): 1.98 µM (inactive) | GI50 (RXF 393): 2.33 µM (inactive) | GI50 (SF-268): 4.74 µM (inactive) | GI50 (SF-295): 10.1 µM (inactive) | GI50 (SK-MEL-28): 6.24 µM (inactive) | GI50 (SK-MEL-2): 3.46 µM (inactive) | GI50 (SK-MEL-5): 10.4 µM (inactive) | GI50 (SK-OV-3): 15.2 µM (inactive) | GI50 (SN12C): 3.39 µM (inactive) | GI50 (SNB-19): 13.4 µM (inactive) | GI50 (SNB-75): 10.3 µM (inactive) | GI50 (SNB-78): 3.44 µM (inactive) | GI50 (SR): 3.13 µM (inactive) | GI50 (SW-620): 2.75 µM (inactive) | GI50 (TK-10): 14.2 µM (inactive) | GI50 (U-251): 6.41 µM (inactive) | GI50 (UACC-257): 6.37 µM (inactive) | GI50 (UACC-62): 6.71 µM (inactive) | GI50 (UO-31): 16.8 µM (inactive) | GI50 (XF498): 7.74 µM (inactive)

COC(C(=O)C(O)C(C)O)C1Cc2cc3cc(OC4CC(OC(C)=O)C(OC5CC(O)C(OC)C(C)O5)C(C)O4)cc(O)c3c(O)c2C(=O)C1OC1CC(OC2CC(OC3CC(C)(O)C(OC(=O)C(C)C)C(C)O3)C(O)C(C)O2)C(O)C(C)O1 (stereo unspecified)
GI50 (A498): 14.5 nM (active) and 8.43 nM (active) | GI50 (A549): 10.9 nM (active) and 9.48 nM (active) | GI50 (BT-549): 0.0202 µM (active) | GI50 (DLD-1): 44.3 nM (active) and 50.7 nM (active) | GI50 (DMS-273): < 10 nM (active) and 16.9 nM (active) | GI50 (DU-145): 0.101 µM (active) | GI50 (EKVX): 10.2 nM (active) and < 10 nM (active) | GI50 (HCT-116): < 18.4 nM (active) and < 10 nM (active) | GI50 (HCT-15): 0.8 µM and 0.935 µM | GI50 (HOP-18): < 0.01 µM (active) | GI50 (Hs-578T): 0.0366 µM (active) | GI50 (MCF7): < 10 nM (active) and 9.16 nM (active) | GI50 (MDA-MB-231): 0.0627 µM (active) | GI50 (MDA-MB-435): 0.0855 µM (active) | GI50 (MDA-N): 0.112 µM (active) | GI50 (Malme-3M): 23.8 nM (active) and < 13.5 nM (active) | GI50 (NCI-H23): < 17.8 nM (active) and 15.4 nM (active) | GI50 (NCI-H460): 9.82 nM (active) and < 10 nM (active) | GI50 (NCI-H522): 15.6 nM (active) and < 10 nM (active) | GI50 (NCI/ADR-RES): > 60.8 µM (inactive) and 51.9 µM (inactive) | GI50 (PC-3): 0.201 µM (active) | GI50 (SF-539): 16.1 nM (active) and < 10 nM (active) | GI50 (SK-MEL-28): < 10 nM (active) and 18.5 nM (active) | GI50 (SK-MEL-2): 8.91 nM (active) and < 10 nM (active) | GI50 (SK-MEL-5): 20.1 nM (active) and < 17.8 nM (active) | GI50 (SK-OV-3): 210 nM (active) and 166 nM (active) | GI50 (SNB-75): < 10 nM (active) and 19.1 nM (active) | GI50 (SNB-78): 29.1 nM (active) and 24.1 nM (active) | GI50 (SW-620): 15.6 nM (active) and 16.2 nM (active) | GI50 (T47D): 0.124 µM (active) | GI50 (UACC-257): 13.9 nM (active) and 26.3 nM (active) | GI50 (UACC-62): < 10 nM (active) and 16.2 nM (active) | GI50 (UO-31): 938 nM (active) and 1.19 µM (inactive) | GI50 (XF498): < 10 nM (active) and 8.95 nM (active)

NC1=NC(=O)/C(=C2\CCNC(=O)c3[nH]c(Br)cc32)N1 [HYMENIALDISINE]
GI50 (786-0): 27.5 µM (inactive) | GI50 (A549): > 70.3 µM (inactive) | GI50 (ACHN): 45.3 µM (inactive) | GI50 (BT-549): 10.4 µM (inactive) | GI50 (CCRF-CEM): 2.43 µM (inactive) and 2.9 µM (inactive) | GI50 (DLD-1): 37.6 µM (inactive) | GI50 (DMS-114): 13 µM (inactive) | GI50 (DMS-273): > 85.5 µM (inactive) | GI50 (DU-145): 39.6 µM (inactive) | GI50 (EKVX): > 100 µM (inactive) and > 71.3 µM (inactive) | GI50 (HCC 2998): 57.9 µM (inactive) and 55.3 µM (inactive) | GI50 (HCT-116): 7.16 µM (inactive) and 5.57 µM (inactive) | GI50 (HCT-15): 29.7 µM and 42.5 µM | GI50 (HL-60): 1.6 µM (inactive) and 1.66 µM (inactive) | GI50 (HOP-18): > 45.1 µM (inactive) | GI50 (HOP-62): 40.8 µM (inactive) and 31.9 µM (inactive) | GI50 (HOP-92): 29.2 µM (inactive) and 40.8 µM (inactive) | GI50 (Hs-578T): 38.6 µM (inactive) | GI50 (K562): 3.85 µM (inactive) and 4.1 µM (inactive) | GI50 (KM-20L2): 70.1 µM (inactive) | GI50 (LOX IMVI): 4.89 µM (inactive) and 4.57 µM (inactive) | GI50 (M14): 9.89 µM (inactive) | GI50 (M19-MEL): 48.5 µM (inactive) | GI50 (MCF7): 40.9 µM (inactive) and 80.7 µM (inactive) | GI50 (MDA-MB-231): 4.66 µM (inactive) | GI50 (MDA-MB-435): 5.58 µM (inactive) | GI50 (MDA-N): 1.9 µM (inactive) | GI50 (MOLT-4): 4.28 µM (inactive) and 3.45 µM (inactive) | GI50 (NCI-H23): 80.9 µM (inactive) and 52.7 µM (inactive) | GI50 (NCI-H460): 65.6 µM (inactive) | GI50 (OVCAR-4): 15.3 µM (inactive) and 17.5 µM (inactive) | GI50 (OVCAR-5): > 52.1 µM (inactive) and > 57.5 µM (inactive) | GI50 (OVCAR-8): 7.21 µM (inactive) and 10.5 µM (inactive) | GI50 (PC-3): 56.6 µM (inactive) | GI50 (RXF 393): 29.7 µM (inactive) and 34.6 µM (inactive) | GI50 (SF-268): 8.93 µM (inactive) and 5.09 µM (inactive) | GI50 (SF-295): > 100 µM (inactive) | GI50 (SK-MEL-28): 7.74 µM (inactive) and 13.8 µM (inactive) | GI50 (SN12C): 19.5 µM (inactive) and 11.3 µM (inactive) | GI50 (SNB-19): 39.1 µM (inactive) and 48.2 µM (inactive) | GI50 (SNB-75): 34.8 µM (inactive) and 40 µM (inactive) | GI50 (SNB-78): 86.3 µM (inactive) | GI50 (SR): 0.303 µM (active) | GI50 (T47D): 7.87 µM (inactive) | GI50 (TK-10): 9.12 µM (inactive) | GI50 (U-251): 26.4 µM (inactive) and 18.6 µM (inactive) | GI50 (UACC-257): 23.7 µM (inactive) and 18.3 µM (inactive) | GI50 (UACC-62): 13.4 µM (inactive) and 9.62 µM (inactive) | GI50 (UO-31): 3.02 µM (inactive) and 5.6 µM (inactive) | GI50 (XF498): > 100 µM (inactive)
